This passage reports EC50 and CC50 results from patent US11639350B2, “Heteroaryldihydropyrimidine derivatives and methods of treating hepatitis B infections” (Janssen Pharmaceutica NV, priority 2018, dated 2023).

In one data set the test system is HBV. Description: HBV inhibitory activity: HBV DNA in the culture medium of HepG2.2.15 cells by q-PCR. It is filed as cell-based. Particulars: Hepatitis B virus, HepG2.2.15, 144 h, HepG2.2.15 cells, 6 days of compound treatment, HBV DNA in culture medium by q-PCR, highest concentration 10 μM; read-out: EC50. The method in brief:
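Supernatant HBV DNA quantified by q-PCR after a 6-day compound exposure, with one mid-course medium change, of HepG2.2.15 cells (stably integrated HBV; 40,000 per well, 2% FBS). Eight-point 3-fold series topped at 10 μM for antiviral EC50; separate plates of 5,000 cells per well with 100 μM top give CC50.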

A short description of data set [1]: Cytotoxicity determination in HepG2.2.15 cells (CCK-8). The data set is classed as cell-based. Particulars: human, 6 days of compound treatment, CCK-8, highest concentration 100 μM. The procedure, abridged:
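CC50 is from CCK-8 absorbance (450 nm, 630 nm reference) after 2.5 h with reagent. Before that, compounds were applied for six days, top concentration 100 μM, eight threefold dilutions, one mid-course medium change, to stably HBV-integrated HepG2.2.15 cells plated at 5,000/well in 2% FBS.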

Bounds are passed on as bounds.

As usually defined, the EC50 is the concentration that produces a half-maximal response. Broadly, the CC50 is the concentration at which the toxic effect on the cells reaches its halfway point. Read a high CC50 as better tolerance by the cells. As to `COCCS(=O)(=O)N[C@H]1CC[C@H](C2=C(C(=O)OC)C(c3ccc(F)cc3Cl)N=C(c3nccs3)N2)CC1` (single isomer, unassigned) [Compound 182A, (trans)Methyl 4-(2-chloro-4-fluorophenyl)-6-(4-(2-methoxyethylsulfonamido)cyclohexyl)-2-(thiazol-2-yl)-1,4-dihydropyrimidine-5-carboxylate], the EC50 with HBV came to 93 nM. Further, the half-maximal cytotoxic concentration (CC50) at 6 days in data set [1] was 33600 nM.

For the compound `COC(=O)C1=C(C2CCN(S(=O)(=O)C3CN(CCOC(C)(C)C)C3)CC2)NC(c2nccs2)=NC1c1ccc(F)c(F)c1Cl` (stereo not shown) [Compound 248, Methyl 6-(1-((1-(2-(tert-butoxy)ethyl)azetidin-3-yl)sulfonyl)piperidin-4-yl)-4-(2-chloro-3,4-difluorophenyl)-2-(thiazol-2-yl)-1,4-dihydropyrimidine-5-carboxylate], the EC50 in the data set with HBV amounted to 56 nM. Moreover, in data set [1], it took 3500 nM to reach half-maximal cytotoxicity (CC50 at 6 days).

As to `COC(=O)C1=C(C2CCN(S(=O)(=O)[C@H]3C[C@@H](C(=O)O)C3)CC2)NC(c2nccs2)=NC1c1ccc(F)c(F)c1Cl` (relative stereo) [Compound 232D, (cis)-3-((4-(−6-(2-Chloro-3,4-difluorophenyl)-5-(methoxycarbonyl)-2-(thiazol-2-yl)-3,6-dihydropyrimidin-4-yl)piperidin-1-yl)sulfonyl)cyclobutanecarboxylic Acid], the EC50 in the data set on HBV is 30 nM. Besides, the CC50 at 6 days in data set [1] amounted to 39600 nM.

Turning to `CCNS(=O)(=O)N1CC(C2=C(C(=O)OC)C(c3ccc(F)cc3Cl)N=C(c3nccs3)N2)C1` (stereo not shown) [Compound 81, 4-(2-Chloro-4-fluoro-phenyl)-6-(1-ethylsulfamoyl-azetidin-3-yl)-2-thiazol-2-yl-1,4-dihydro-pyrimidine-5-carboxylic Acid Methyl Ester], in the data set with HBV, the EC50 came out at 119 nM. Also, in data set [1], the cytotoxic concentration (CC50) at 6 days is 10500 nM.

Regarding `COC(=O)C1=C(C2CCN(S(C)(=O)=O)CC2)NC(c2nccs2)=NC1c1ccc(F)cc1Cl` (stereo not shown) [Compound 103, Methyl 4-(2-chloro-4-fluorophenyl)-6-(1-(methylsulfonyl)-piperidin-4-yl)-2-(thiazol-2-yl)-1,4-dihydropyrimidine-5-carboxylate], in the data set on HBV, the EC50 is 501 nM. Half-maximal cytotoxicity in data set [1] (CC50 at 6 days) was put at 87000 nM.

Regarding `COC(=O)C1=C(C2CCN(S(=O)(=O)[C@H]3C[C@H](C(=O)O)C3)CC2)NC(c2nccs2)=NC1c1ccc(F)cc1Cl` (relative stereo) [Compound 285A, trans-3-((4-(6-(2-Chloro-4-fluorophenyl)-5-(methoxycarbonyl)-2-(thiazol-2-yl)-3,6-dihydropyrimidin-4-yl)piperidin-1-yl)sulfonyl)cyclobutane-carboxylic Acid], in the data set with HBV, the EC50 was 24 nM. The same compound had a CC50 at 6 days in data set [1] of 67200 nM.

In the case of `CCOC(=O)C1=C([C@H]2CC[C@H](C(=O)OC)CC2)NC(c2nccs2)=NC1c1ccc(F)cc1Cl` (single isomer, unassigned) [Compound 20X, Ethyl 4-(2-chloro-4-fluorophenyl)-6-(trans-4-(methoxycarbonyl)-cyclohexyl)-2-(thiazol-2-yl)-1,4-dihydropyrimidine-5-carboxylate], in the data set with HBV, the EC50 was determined as 52 nM. Besides, the CC50 at 6 days in data set [1] worked out at 27200 nM.

Turning to `COC(=O)C1=C(C2CC(C(=O)OC)C2)NC(c2nccs2)=NC1c1ccc(F)cc1Cl` (single isomer, unassigned) [Compound 85C, 4-(2-Chloro-4-fluoro-phenyl)-6-(3-methoxycarbonyl-cyclobutyl)-2-thiazol-2-yl-1,4-dihydro-pyrimidine-5-carboxylic Acid Methyl Ester], the EC50 in the data set on HBV was found to be 600 nM. In data set [1], this compound showed a CC50 at 6 days of 95400 nM.

For `COC(=O)C1=C([C@H]2CC[C@H](NS(=O)(=O)C3CN(C)C3)CC2)NC(c2nccs2)=NC1c1ccc(F)c(F)c1Cl` (single isomer, unassigned) [Compound 251B, (trans)-Methyl 4-(2-chloro-3,4-difluorophenyl)-6-(4-(1-methylazetidine-3-sulfonamido)cyclohexyl)-2-(thiazol-2-yl)-1,4-dihydropyrimidine-5-carboxylate], the half-maximal effective concentration (EC50) with HBV is 103 nM. In addition, it took 8700 nM to reach half-maximal cytotoxicity in data set [1] (CC50 at 6 days).

`CCOC(=O)C1=C([C@H]2CCC[C@H](C(=O)O)CC2)NC(c2nccs2)=NC1c1ccc(F)c(F)c1Cl` (single isomer, unassigned) [Compound 302A, (trans)-4-(−6-(2-Chloro-3,4-difluorophenyl)-5-(ethoxycarbonyl)-2-(thiazol-2-yl)-3,6-dihydropyrimidin-4-yl)cycloheptanecarboxylic Acid]: the EC50 in the data set with HBV worked out at 24 nM. The compound also yielded a 50% cytotoxic concentration (CC50) at 6 days in data set [1] of 15200 nM.

As to `COC(=O)C1=C([C@H]2CC[C@H](S(=O)(=O)N3CC[C@@H](C(=O)O)C3)CC2)NC(c2nccs2)=NC1c1ccc(F)c(F)c1Cl` (stereo in doubt) [Compound 293C, (trans)-1-((4-((R)-6-(2-Chloro-3,4-difluorophenyl)-5-(methoxycarbonyl)-2-(thiazol-2-yl)-3,6-dihydropyrimidin-4-yl)cyclohexyl)-sulfonyl)pyrrolidine-3-carboxylic Acid], the EC50 with HBV turned out to be 150 nM. Further, the CC50 at 6 days in data set [1] came out at 85700 nM.

On to `COC(=O)C1=C(C2CCN(S(=O)(=O)C3CCC(C(=O)OC(C)(C)C)CC3)CC2)NC(c2nccs2)=NC1c1ccc(F)cc1Cl` (single isomer, unassigned) [Compound 312X, Methyl 6-(1-((4-(tert-butoxycarbonyl)cyclohexyl)sulfonyl)-piperidin-4-yl)-4-(2-chloro-4-fluorophenyl)-2-(thiazol-2-yl)-1,4-dihydropyrimidine-5-carboxylate], for which, in the data set with HBV, the EC50 worked out at 97 nM. Further, in data set [1], the CC50 at 6 days was > 100000 nM.

Regarding `COC(=O)C1=C(C2CCN(S(=O)(=O)[C@H]3C[C@@H](CO)C3)CC2)NC(c2nccs2)=NC1c1ccc(F)cc1Cl` (relative stereo) [Compound 357B, (cis)-Methyl 4-(2-chloro-4-fluorophenyl)-6-(1-((3-(hydroxymethyl)cyclobutyl)sulfonyl)piperidin-4-yl)-2-(thiazol-2-yl)-1,4-dihydropyrimidine-5-carboxylate], in the data set with HBV, the EC50 was determined as 36 nM. In data set [1], this compound yielded a CC50 at 6 days of 15400 nM.

Turning to `CCOC(=O)C1=C(C2CCN(S(=O)(=O)[C@H]3C[C@@H](C(=O)O)C3)CC2)NC(c2nccs2)=NC1c1ccc(F)c(F)c1C` (relative stereo) [Compound 343D, (cis)-3-((4-(6-(3,4-difluoro-2-methylphenyl)-5-(ethoxycarbonyl)-2-(thiazol-2-yl)-3,6-dihydropyrimidin-4-yl)piperidin-1-yl)sulfonyl)cyclobutane-carboxylic Acid], the EC50 with HBV amounted to 53 nM. The compound further displayed a CC50 at 6 days in data set [1] of 24000 nM.

On to `COC(=O)C1=C(C2CCCN2S(C)(=O)=O)NC(c2nccs2)=NC1c1ccc(F)cc1Cl` (single isomer, unassigned) [Compound 69C, Methyl 4-(2-chloro-4-fluorophenyl)-6-(1-(methylsulfonyl)-pyrrolidin-2-yl)-2-(thiazol-2-yl)-1,4-dihydropyrimidine-5-carboxylate], for which the EC50 with HBV was 448 nM. Moreover, in data set [1], the CC50 at 6 days came to 11900 nM.

`COC(=O)C1=C([C@H]2CC[C@H](S(=O)(=O)N(C)C)CC2)NC(c2nccs2)=NC1c1ccc(F)c(F)c1Cl` (single isomer, unassigned) [Compound 233C, (trans)-methyl 4-(2-chloro-3,4-difluorophenyl)-6-(4-(N,N-dimethylsulfamoyl)cyclohexyl)-2-(thiazol-2-yl)-1,4-dihydropyrimidine-5-carboxylate]: the EC50 in the data set on HBV was determined as 13 nM. In data set [1], this compound showed a CC50 at 6 days of 5600 nM.

Consider `COC(=O)C1=C([C@H]2CC[C@H](N(CC(=O)O)S(C)(=O)=O)CC2)NC(c2nccs2)=NC1c1ccc(F)cc1Cl` (relative stereo) [Compound 139, 2-(N-(trans-4-(6-(2-chloro-4-fluorophenyl)-5-(methoxycarbonyl)-2-(thiazol-2-yl)-3,6-dihydropyrimidin-4-yl)cyclohexyl)methylsulfonamido)acetic Acid], for which the EC50 in the data set with HBV is 112 nM. Also, in data set [1], the CC50 at 6 days amounted to 75600 nM.

With `COC(=O)C1=C(C2CCN(S(=O)(=O)C3COC3)C2)NC(c2nccs2)=NC1c1ccc(F)cc1Cl` (stereo not shown) [Compound 255, Methyl 4-(2-chloro-4-fluorophenyl)-6-(−1-(oxetan-3-ylsulfonyl)pyrrolidin-3-yl)-2-(thiazol-2-yl)-1,4-dihydropyrimidine-5-carboxylate], in the data set with HBV, the EC50 was 49 nM. The compound further showed a CC50 at 6 days in data set [1] of 24100 nM.

Take `COC(=O)C1=C([C@H]2CC[C@H](N(CCO)CC(F)(F)F)CC2)NC(c2nccs2)=NC1c1ccc(F)c(F)c1Cl` (single isomer, unassigned) [Compound 434B, (trans)-Methyl 4-(2-chloro-3,4-difluorophenyl)-6-(4-((2-hydroxyethyl)(2,2,2-trifluoroethyl)amino)cyclohexyl)-2-(thiazol-2-yl)-1,4-dihydropyrimidine-5-carboxylate]: the concentration giving a half-maximal response (EC50) in the data set on HBV was found to be 128 nM. In data set [1], this compound showed a CC50 at 6 days of 6800 nM.

For the compound `COC(=O)C1=C(C2CCN(S(=O)(=O)CCC(N)=O)CC2)NC(c2nccs2)=NC1c1ccc(F)cc1Cl` (stereo not shown) [Compound 457, Methyl 6-(1-((3-amino-3-oxopropyl)sulfonyl)piperidin-4-yl)-4-(2-chloro-4-fluorophenyl)-2-(thiazol-2-yl)-1,4-dihydropyrimidine-5-carboxylate], the EC50 in the data set on HBV was determined as 54 nM. In data set [1], this compound came in with a CC50 at 6 days of 63400 nM.
